Data reported in patent US9408406B2, “Food and beverage products containing 1,3-propanediol and methods of suppressing bitterness and enhancing sweetness in food and beverage products using 1,3-propanediol” (Kraft Foods Group Brands LLC, priority 2012, dated 2016).
“Also recorded” adds a separate entry of the source.

Columns and labels:
tasters [1] = test: Taster evaluation with malic acid (Example 10); assay type: in vivo, human; conditions: 1 weight percent malic acid in water; 0.3 weight percent 1,3-propanediol (Y), propylene glycol (Z) or none (AA)
Procedure: Samples were prepared to evaluate the effect of including 1,3-propanediol with malic acid. Sample Y included 1 weight percent malic acid with 0.3 weight percent 1,3-propanediol in water. Sample Z included 1 weight percent malic acid and 0.3 weight percent propylene glycol in water. Sample AA included 1 weight percent malic acid in water.

tasters [2] = test: Triangle test for detecting 1,3-propanediol at low concentration (Example 4); assay type: in vivo, human; conditions: for tasters who could identify the 1,3-propanediol in a triangle test: four tasters
Procedure: Samples A-D were prepared according to Table 4 below to analyze and determine if 1,3-propanediol imparted any flavor when used at low concentrations. The samples were evaluated by a team of four tasters.
Samples A and B were compared.

tasters [3] = test: Taster evaluation with 1% citric acid (Example 9); assay type: in vivo, human; conditions: 1 weight percent citric acid in water; 0.3 weight percent propylene glycol (V), none (W) or 1,3-propanediol (X); four tasters
Procedure: Samples were prepared to evaluate the effect of including 1,3-propanediol with a higher concentration of citric acid than in Example 8. Sample V included 1 weight percent citric acid and 0.3 weight percent propylene glycol in water. Sample W included 1 weight percent citric acid in water. Sample X included 1 weight percent citric acid in water with 0.3 weight percent 1,3-propanediol. The samples were then evaluated by a team of four tasters.

tasters [4] = test: Taster evaluation with Robusta instant coffee (Example 12); assay type: in vivo, human; conditions: 1 weight percent Robusta instant coffee in water; 0.3 weight percent propylene glycol (AE), none (AF) or 1,3-propanediol (AG)
Procedure: Samples were prepared to evaluate the effect of including 1,3-propanediol with coffee. Robusta instant coffee was prepared with 1 weight percent coffee in water. Sample AE included 0.3 weight percent propylene glycol in the prepared coffee. Sample AF was a coffee only control. Sample AG included 0.3 weight percent 1,3-propanediol in the prepared coffee.

consumers [5] = test: Paired consumer tasting of beverages with 0.05% Stevia SG95 with or without 1,3-propanediol (Example 1); assay type: in vivo, human
Procedure: Beverage samples were prepared to evaluate the effect of the level of 1,3-propanediol on Stevia. The beverages were prepared just prior to testing using water and the ingredients according to Table 1 below.
Four pairs of beverages were evaluated by consumers in one sitting. The order of evaluating the pairs of products was blocked so that the highest level of 1,3-propanediol (sample 4) was always served as the first pair of beverages along with its corresponding control. The order of evaluating the beverage samples within pairs was rotated. There was a timed five minute break between pairs. Water and unsalted crackers were used as a palate cleanser before tasting each beverage and between beverage pairs. The beverages were prepared at the facility prior to the onset of test using water along with the designated solutions.
The stevia used was SG95 from PureCircle. SG95 is a high purity combination (>95% steviol glycosides) of nine steviol glycosides. Reb A accounts for over half of the composition but also includes Rebaudioside D and Rebaudioside F. SG95 is 230 times sweeter than sugar.
The samples were tasted by consumers between 21-55 years of age who consume diet beverages at least once per month and are non-rejectors of flavored beverages. The consumers had no allergies or sensitivities to beverages or sweeteners, including artificial sweeteners.

tasters [6] = test: Taster evaluation with earl grey tea (Example 11); assay type: in vivo, human; conditions: steeped earl grey tea; 0.3 weight percent 1,3-propanediol (AB), none (AC) or propylene glycol (AD); four tasters
Procedure: Samples were prepared to evaluate the effect of including 1,3-propanediol with tea. Six earl grey tea bags were combined with 250 ml of water for 30 minutes. Sample AB included 0.3 weight percent 1,3-propanediol in the steeped tea and Sample AD included 0.3 weight percent propylene glycol in the steeped tea. Sample AC was a tea only control. The samples were evaluated by a team of four tasters.

tasters [7] = test: Bitterness perception with potassium chloride, taster panel (Example 6); conditions: 0.3% KCl in water; 0.3% 1,3-propanediol, none or 0.3% propylene glycol; five tasters
tasters [8] = test: Taster evaluation with acetic acid (Example 7); assay type: in vivo, human; conditions: 0.05 percent acetic acid in water; none, 0.3 percent 1,3-propanediol or 0.3 percent propylene glycol; three tasters
Procedure: Samples were prepared to evaluate the effect of inclusion of 1,3-propanediol with acetic acid. Sample M included 0.05 percent acetic acid in water, Sample N included 0.05 percent acetic acid in water with 0.3 percent 1,3-propanediol, and Sample O included 0.05 percent acetic acid in water with 0.3 percent propylene glycol. The samples were evaluated by a team of three tasters.

consumers [9] = test: Paired consumer tasting of beverages with 0.25% KCl with or without 1,3-propanediol (Example 3); assay type: in vivo, human
Procedure: Beverage samples were prepared to evaluate the effect of the level of 1,3-propanediol on KCl. The samples were tasted by consumers between 21-55 years of age with no allergies or sensitivities to food or beverages or ingredients.
(§1) On day 1 of testing, consumers were given two samples, one a 0.25% KCl solution and the other water, and asked “Which beverage is more bitter?” This was replicated a total of three times to obtain four different trials. Order within the pair was rotated. Those who selected the KCl sample at least three times across the four trials were classified as “KCl sensitive.” Consumers then evaluated three more pairs of samples with varying levels of 1,3-propanediol with KCl versus a standard control (no 1,3-propanediol) as outlined in Table 3 below.
(§2) After the first day of testing, it was determined the number of KCl Bitterness Sensitive consumers may have been overstated. It was hypothesized that respondents could detect differences between plain water and water containing KCl, such as saltiness, but may not have been perceiving bitterness. Therefore, a second bitterness sensitivity test was conducted on day 2 using three pairs of a KCl solution (0.25%) versus a NaCl solution (0.15%) in an attempt to have the solutions iso-salty. Two new levels of Zemea were evaluated along with KCl versus a standard control as outlined in Table 3 below.
The order of evaluating the beverage samples within pairs were rotated (left/right). The order of evaluating the pairs of products was blocked so the highest level of 1,3-propanediol was always served as the first pair of beverages along with its control. There was a timed 5 minute break between pairs. Water and unsalted crackers were used as a palate cleanser before tasting each beverage and between beverage pairs.

tasters [10] = test: Paired taster test: which sample is more bitter, 0.25% KCl in water with or without 1,3-propanediol (Example 2); assay type: in vivo, human
Procedure: A 0.25% KCl in water solution was prepared and test samples were dosed with the appropriate amount of 1,3-propanediol according to Table 2 below. One ounce samples of each solution were prepared. The tasters received a pair (one blank and one dosed sample) and asked to rate which sample was more bitter. The scores in Table 2 are the number of tasters that chose that sample as being more bitter.

panelists = test: Panel assessment of Reb A beverage with or without 1,3-propanediol (Example 5); assay type: in vivo, human; conditions: Sample H versus Sample G
Procedure: Samples were prepared to analyze the effect of 1,3-propanediol with sweeteners such as Reb A. Samples G and H were prepared as shown in Table 5 below.
Nine panelists compared the samples. Panelists rinsed prior to tasting the samples and in between sample assessment with seltzer, unsalted crackers and water with a one-minute break between samples. Samples were assessed on the second sip. The results are shown below in Table 6 with the comments indicating the order of what was tasted in each of the samples (Scale: 0-15=None to Extreme).

consumers [11] = test: KCl bitterness sensitivity test (Example 3); assay type: in vivo, human
Description: as §1, §2

[12] = first round, Pair 1: 0.0019 percent 1,3-propanediol with 0.05% Stevia SG95
[13] = first round, Pair 2: 0.0075 percent 1,3-propanediol with 0.05% Stevia SG95
[14] = second round, Pair 2: 0.000005 percent 1,3-propanediol with 0.05% Stevia SG95
[15] = second round, Pair 4: 0.0005 percent 1,3-propanediol with 0.05% Stevia SG95
[16] = about 0.0005% 1,3-propanediol with 0.25% KCl, consumers (general population), FIG. 4
[17] = 0.000005 ppm 1,3-propanediol in 0.25% KCl in water
[18] = 0.00005 ppm 1,3-propanediol in 0.25% KCl in water
[19] = 0.005 ppm 1,3-propanediol in 0.25% KCl in water
[20] = 0.05 ppm 1,3-propanediol in 0.25% KCl in water
[21] = 0.5 ppm 1,3-propanediol in 0.25% KCl in water
[22] = 5 ppm 1,3-propanediol in 0.25% KCl in water
[23] = 50 ppm 1,3-propanediol in 0.25% KCl in water
[24] = 100 ppm 1,3-propanediol in 0.25% KCl in water
[25] = 500 ppm 1,3-propanediol in 0.25% KCl in water
[26] = 5000 ppm 1,3-propanediol in 0.25% KCl in water

OCCCO [1,3-propanediol]
sourness as indicated by the tasters (tasters [1]): more sour upfront but less lingering
tasters who could identify the 1,3-propanediol in a triangle test (tasters [2]; Samples A and B: 0.14% 1,3-propanediol in water): one
tasters who could identify the 1,3-propanediol in a triangle test (tasters [2]; Samples C and D: 0.14% 1,3-propanediol in water with 10% sucrose): one
detectability at low levels (tasters [2]; water or sucrose sweetened beverages): generally not detectable at low levels
sourness as indicated by the tasters (tasters [3]): increased sourness perception when combined with citric acid
bitterness as indicated by the tasters (tasters [4]): less bitter than without 1,3-propanediol
Stevia bitterness versus control (consumers [5]; [12]): significantly less Stevia bitterness
more mouth drying, longer lasting aftertaste and sweetness versus control (consumers [5]; [12]): Neither the control nor the experimental sample of Pair 1 demonstrated significantly
sweetness versus control (consumers [5]; [12]): fell short on being sweeter than control
all other attributes versus control (consumers [5]; [13]): selected about equally
mouth drying versus control (consumers [5]; [13]): significantly more “mouth drying”
attributes versus control (consumers [5]; first round, Pair 3: 0.0150 percent 1,3-propanediol with 0.05% Stevia SG95): no statistical differences in attributes
attributes versus control (consumers [5]; first round, Pair 4: 0.03 percent 1,3-propanediol (text; Table 1 prints 0.3%) with 0.05% Stevia SG95): no statistical differences in attributes
bitterness versus control (consumers [5]; first round, Pair 4 level of 1,3-propanediol with 0.05% Stevia SG95): numerically more bitterness
attributes versus control (consumers [5]; second round, Pair 1: 0.0000005 percent 1,3-propanediol with 0.05% Stevia SG95): no statistical differences in attributes
aftertaste compared to control (consumers [5]; [14]): significantly longer lasting aftertaste
all other attributes versus control (consumers [5]; [14]): selected about equally
attributes versus control (consumers [5]; second round, Pair 3: 0.00005 percent 1,3-propanediol with 0.05% Stevia SG95): no statistical differences in attributes
bitterness compared to control (consumers [5]; [15]): significantly less bitterness
sweetness compared to control (consumers [5]; [15]): more sweetness; also recorded: significantly sweeter versus control
other flavor notes / flavor profile as indicated by the tasters (tasters [6]): sour, bitter, and astringent characteristics all changed
bitterness as indicated by the tasters (tasters [7]): functioned to suppress bitterness when used with potassium chloride
sourness as indicated by the tasters (tasters [8]): increases the sourness compared to water when combined with acetic acid
sweetness, statistical significance (consumers [9]; 0.0005 percent 1,3-propanediol with 0.25% KCl, non-KCl sensitive consumers): statistically significant increase in sweetness
reduced bitterness and increased sweetness (consumers [9]; about 0.0005% 1,3-propanediol with 0.25% KCl, KCl sensitive consumers, FIG. 5): also found in the KCl sensitive consumers (FIG. 5), although to a less dramatic extent
bitterness (consumers [9]; [16]): reduced bitterness
sweetness (consumers [9]; [16]): increased sweetness
% of tasters that chose the control as more bittter (tasters [10]; [17]): 63%
number of tasters that chose the 1,3-Propanediol sample as being more bitter (tasters [10]; [17]): 3
% of tasters that chose the control as more bittter (tasters [10]; [18]): 63%
number of tasters that chose the 1,3-Propanediol sample as being more bitter (tasters [10]; [18]): 3
% of tasters that chose the control as more bittter (tasters [10]; 0.0005 ppm 1,3-propanediol in 0.25% KCl in water): 100%
% of tasters that chose the control as more bittter (tasters [10]; [19]): 50%
number of tasters that chose the 1,3-Propanediol sample as being more bitter (tasters [10]; [19]): 4
% of tasters that chose the control as more bittter (tasters [10]; [20]): 75%
number of tasters that chose the 1,3-Propanediol sample as being more bitter (tasters [10]; [20]): 2
% of tasters that chose the control as more bittter (tasters [10]; [21]): 63%
number of tasters that chose the 1,3-Propanediol sample as being more bitter (tasters [10]; [21]): 3
% of tasters that chose the control as more bittter (tasters [10]; [22]): 63%
number of tasters that chose the 1,3-Propanediol sample as being more bitter (tasters [10]; [22]): 3
% of tasters that chose the control as more bittter (tasters [10]; [23]): 75%
number of tasters that chose the 1,3-Propanediol sample as being more bitter (tasters [10]; [23]): 2
% of tasters that chose the control as more bittter (tasters [10]; [24]): 75%
number of tasters that chose the 1,3-Propanediol sample as being more bitter (tasters [10]; [24]): 2
% of tasters that chose the control as more bittter (tasters [10]; [25]): 75%
number of tasters that chose the 1,3-Propanediol sample as being more bitter (tasters [10]; [25]): 2
% of tasters that chose the control as more bittter (tasters [10]; [26]): 13%
number of tasters that chose the 1,3-Propanediol sample as being more bitter (tasters [10]; [26]): 7
taste of 1,3-propanediol itself (tasters [10]; 5000 ppm sample in 0.25% KCl in water): the bitterness of the 1,3-propanediol was apparent
effect on flavor profile with Reb A (panelists): general shift in bitter and sour flavor profiles

[Cl-].[K+] [KCl, potassium chloride]
share of “KCl sensitive” consumers (consumers [11]; day 1: 0.25% KCl solution versus water): 67%
share of “KCl sensitive” consumers (consumers [11]; day 2: KCl solution (0.25%) versus NaCl solution (0.15%)): 53%
